The text below walks through data of patent publication US20190062305A1, “PYRIDYL OR PYRAZINYL COMPOUNDS CARRYING A METHYL-BOUND ALPHA-AMINO ACID AMIDE GROUP” (ABBVIE DEUTSCHLAND GMBH & CO. KG, priority 2015, published 2019).

Counter-ions that a name gives are not always drawn.

For data set [1], the target named is T1, 5-HT2C receptor (Homo sapiens, UniProt P28335).
T1 construct: host or cells: U2OS
Description: Human 5-HT2C functional assay (beta-arrestin2 recruitment, U2OS_HTR2C_β-Arrestin cells). The class given is cell-based. Particulars: for EC50: beta-arrestin2 recruitment, U2OS_HTR2C_β-Arrestin cells, 1.5 h incubation, read-out: EC50 5-HT2C (potency in functional assay). As for the experimental part: The functional activity of compounds of formula I was assayed by incubation with U2OS_HTR2C_β-Arrestin cells (DiscoverX, 93-0289C3) to induce beta-arrestin2 recruitment to the 5-HT2C receptor. The agonist-induced recruitment and proximity of the receptor and beta-arrestin2 leads to complementation and formation of active β-galactosidase. The enzyme complementation results in enzyme activity, which is measured following the termination of the agonist incubation using DiscoveRx's detection reagent, which contains a chemiluminescent substrate which produces a high intensity signal. Cells were plated and a medium-change to a 1% serum containing medium was performed 24h later. The next day, test compounds were added and incubated for 1.5 h before addition of detection reagent.
The response produced was measured and compared with the response produced by 10 [mu]M 5-HT or the maximal effect induced by 5-HT (defined as 100%) to which it was expressed as a percentage response (relative efficacy). Dose response curves were constructed using Graphpad Prism (Graph Software Inc.) or using in house adapted software using a 4 parameter dose response model with variable slope (fit=(Bottom+(Top-Bottom)/(1+10^∧((Log EC50−x)*HillSlope))res=(y-fit)). Results are compiled in the table below.
Background: Activated receptors often draw arrestin, which recruitment assays turn into a signal.

The nature of data set [2]: Metabolic stability in human liver microsomes, unbound intrinsic clearance (Cl int/fu mic). It is filed as in vitro ADME. Particulars: 0.5 μM compound, NADPH; for CLint scaled at 0.5 μM: human, liver microsomes, pH 7.4, human liver microsomes 0.25 mg/mL, read-out: Cl int, mic unb. (h) [l/h/kg] (unbound intrinsic clearance, human). On the procedure: Samples of the tested compounds (0.5 μM) were preincubated together with human liver microsomes (0.25 mg of microsomal protein/mL) in 0.05 M potassium phosphate buffer of pH 7.4 in microtiter plates at 37° C. for 5 minutes. The reaction was started by adding NADPH (1.0 mM). After 0, 5, 10, 15, 20 and 30 minutes, an aliquot was removed, the reaction was cooled and stopped by adding twice the amount of quench solution consisting of acetonitrile/methanol 1:1, and containing 0.2 μM carbutamide as internal standard. The samples were frozen until analyzed. The remaining concentration of undegraded test substance was determined by liquid chromatography-tandem mass spectrometry (LC-MS/MS). The half-life (t1/2) was determined from the gradient of the ratio of the signal of (test substance/internal standard)/unit time plot, allowing the calculation of the half-life of the test substance, assuming first order kinetics, from the decrease in the concentration of the compound with time. The microsomal clearance ([…]) was calculated as follows: […]=((ln(2)/t 1⁄2)/Microsomal Protein Concentration (mg/ml))*1000, leading to the unit of uL/min/mg. The scaled clearance (mClin_scaled) was calculated as […]_scaled=m CLint*(Microsomal Yield (mg/kg BW))/1000000*60, leading to the units L/h/kg. The Microsomal Yield is defined by the specifics of the used microsomes. Calculations were modified from references: Di, The Society for Biomolecular Screening, 2003, 453-462; Obach, D M D, 1999 vol 27. N 11, 1350-1359. A suspension of 0.25 mg/ml microsomal protein spiked with 0.5 μM of test compound was pipetted on one side of a HTDialysis device (HTDialysis LLC, 37 Ledgewood Drive, Gales Fery CT 06335) separated by a membrane with a MWcut off 12-14 K. 50 mM K-Phosphate buffer (pH 7.4) was added on the other side of the well. After incubation at 37° C. for 4 h while shaking at 150 rpm, aliquots of both sides were taken, quenched with MeOH/ACN 1:1 and 0.2 μM of internal standard and frozen until analysis by LCMSMS Cl int unbound=Cl int/fu mic
For orientation: Liver microsomes are vesicles of endoplasmic reticulum, rich in cytochrome P450 enzymes.

Where [3] appears, read: relative efficacy vs response to 10 μM 5-HT or maximal 5-HT effect (100%).

T1 sequence (P28335 33-458): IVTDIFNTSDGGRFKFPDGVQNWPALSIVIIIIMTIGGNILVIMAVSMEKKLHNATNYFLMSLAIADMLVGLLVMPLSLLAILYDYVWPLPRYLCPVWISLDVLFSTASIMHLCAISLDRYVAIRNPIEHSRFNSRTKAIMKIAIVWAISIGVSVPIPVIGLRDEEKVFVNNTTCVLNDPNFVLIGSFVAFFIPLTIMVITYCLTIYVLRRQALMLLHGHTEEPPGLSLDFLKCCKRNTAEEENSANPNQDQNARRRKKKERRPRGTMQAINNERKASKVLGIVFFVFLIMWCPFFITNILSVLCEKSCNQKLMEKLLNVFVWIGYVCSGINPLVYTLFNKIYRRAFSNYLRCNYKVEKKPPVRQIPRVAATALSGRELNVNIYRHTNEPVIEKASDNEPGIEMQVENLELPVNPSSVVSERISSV
T1 sequence (P32121 whole entry partner): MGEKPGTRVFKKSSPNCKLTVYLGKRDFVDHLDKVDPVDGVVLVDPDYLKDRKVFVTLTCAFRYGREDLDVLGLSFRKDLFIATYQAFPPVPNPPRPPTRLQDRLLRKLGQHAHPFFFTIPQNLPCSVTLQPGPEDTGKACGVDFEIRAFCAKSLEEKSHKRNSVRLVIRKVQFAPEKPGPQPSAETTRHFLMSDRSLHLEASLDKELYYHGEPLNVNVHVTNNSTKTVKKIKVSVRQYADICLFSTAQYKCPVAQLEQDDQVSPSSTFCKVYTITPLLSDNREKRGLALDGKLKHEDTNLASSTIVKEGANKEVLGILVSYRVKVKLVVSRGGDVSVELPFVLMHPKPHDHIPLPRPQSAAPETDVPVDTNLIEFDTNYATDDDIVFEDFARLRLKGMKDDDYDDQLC

`COc1nc(NC2CCC(C(F)(F)F)CC2)c(F)cc1CN(C)C(=O)[C@@H]1CCCN1` (mixture of isomers) [Example 157, (2S)—N-[[5-fluoro-2-methoxy-6-[[4-(trifluoromethyl)cyclohexyl]amino]-3-pyridyl]methyl]-N-methyl-pyrrolidine-2-carboxamide; 2,2,2-trifluoroacetic Acid]: the concentration for a half-maximal effect (EC50) in data set [1] is 200 to 1000 nM. The compound also showed an Emax in data set [1] (setting [3]) of 50 to 70%. The CLint scaled at 0.5 μM in data set [2] lay in the range of 5 to 50 L/h/kg.

On to `COc1nc(O[C@H]2CCC[C@@H](C(F)(F)F)C2)c(F)cc1CNC(=O)[C@@H]1CCCN1` (relative stereo) [Example 88, (2S)—N-[[5-Fluoro-2-methoxy-6-[(1S,3R)-3-(trifluoromethyl)cyclohexoxy]-3-pyridyl]methyl]pyrrolidine-2-carboxamide Hydrochloride], for which the EC50 in data set [1] is under 20 nM. Also, the maximal response (Emax) in data set [1] (setting [3]) is over 70%. Besides, in data set [2], the CLint scaled at 0.5 μM fell in the range of 5 to 50 L/h/kg.

With `COc1nc(O[C@H]2CCC[C@H](C(F)(F)F)C2)c(F)cc1CNC(=O)[C@@H]1CCCN1` (relative stereo) [Example 89, (2S)—N-[[5-Fluoro-2-methoxy-6-[(1S,3S)-3-(trifluoromethyl)cyclohexoxy]-3-pyridyl]methyl]pyrrolidine-2-carboxamide Hydrochloride], the EC50 in data set [1] was under 20 nM. The same compound showed a maximal effect (Emax) in data set [1] (setting [3]) of over 70%. Moreover, the CLint scaled at 0.5 μM in data set [2] was in the range of 5 to 50 L/h/kg.

Regarding `COc1nc(OC2CCC(C(C)(F)F)CC2)c(F)cc1CNC(=O)[C@@H]1CCCN1` (single isomer, unassigned; isomer 1) [Example 73], the EC50 in data set [1] was in the range of 200 to 1000 nM. Further, the Emax in data set [1] (setting [3]) is over 70%. The CLint scaled at 0.5 μM in data set [2] was 5 to 50 L/h/kg.

As to `COc1nc(OC2CCC(C(C)(F)F)CC2)c(F)cc1CNC(=O)[C@@H]1CCCN1` (single isomer, unassigned; isomer 2) [Example 74], in data set [1], the EC50 was under 20 nM. The “% efficacy” value in data set [1] (setting [3]) is “+++ (>70%)”. Moreover, the “Cl int, mic unb. (h) [l/h/kg] (unbound intrinsic clearance, human)” value in data set [2] (human liver microsomes 0.25 mg/mL) is “++ (from 5 to <50 l/h/kg)”.

As to `COc1nc(OC2CCC(F)(F)CC2)c(F)cc1CNC(=O)[C@@H]1CCCN1` [Example 1, (2S)—N-[[6-(4,4-Difluorocyclohexoxy)-5-fluoro-2-methoxy-3-pyridyl]methyl]-pyrrolidine-2-carboxamide; Fumaric Acid], in data set [1], the concentration giving a half-maximal response (EC50) was under 20 nM. Further, the Emax in data set [1] (setting [3]) is over 70%. The CLint scaled at 0.5 μM in data set [2] was under 5 L/h/kg.

With `COc1nc(OCc2ccccc2)c(F)cc1CNC(=O)[C@@H]1CCCN1` [Example 2, (2S)—N-[(6-Benzyloxy-5-fluoro-2-methoxy-3-pyridyl)methyl]pyrrolidine-2-carboxamide; 2,2,2-trifluoroacetic Acid], the concentration for a half-maximal effect (EC50) in data set [1] is under 20 nM. The Emax in data set [1] (setting [3]) was over 70%. In data set [2], the CLint scaled at 0.5 μM was under 5 L/h/kg.

As to `COc1nc(OCC2CCCCC2)c(F)cc1CNC(=O)[C@@H]1CCCN1` [Example 3, (2S)—N-[[6-(Cyclohexylmethoxy)-5-fluoro-2-methoxy-3-pyridyl]methyl]pyrrolidine-2-carboxamide; 2,2,2-trifluoroacetic acid], in data set [1], the half-maximal effective concentration (EC50) was under 20 nM. Further, the Emax in data set [1] (setting [3]) was over 70%. In addition, the CLint scaled at 0.5 μM in data set [2] lay within 5 to 50 L/h/kg.

As to `COc1nc(OCC2CCC(F)(F)CC2)c(F)cc1CNC(=O)[C@@H]1CCCN1` [Example 4, (2S)—N-[[6-[(4,4-Difluorocyclohexyl)methoxy]-5-fluoro-2-methoxy-3-pyridyl]-methyl]pyrrolidine-2-carboxamide; Fumaric Acid], the concentration giving a half-maximal response (EC50) in data set [1] is under 20 nM. In addition, in data set [1] (setting [3]), the Emax was over 70%. Besides, the CLint scaled at 0.5 μM in data set [2] was in the range of 5 to 50 L/h/kg.

Regarding `COc1nc(OCC2CCC(F)(F)C2)c(F)cc1CNC(=O)[C@@H]1CCCN1` (stereo partly drawn) [Example 6, (2S)—N-[[6-[(3,3-Difluorocyclopentyl)methoxy]-5-fluoro-2-methoxy-3-pyridyl]-methyl]pyrrolidine-2-carboxamide; Fumaric Acid], the concentration for a half-maximal effect (EC50) in data set [1] is under 20 nM. In data set [1] (setting [3]), this compound yielded a maximum response (Emax) of over 70%. Further, the CLint scaled at 0.5 μM in data set [2] was under 5 L/h/kg.

Consider `COc1nc(OCC2CCC(F)(F)C2)c(F)cc1CNC(=O)[C@@H]1CCCN1C` (stereo partly drawn) [Example 7, (2S)—N-[[6-[(3,3-Difluorocyclopentyl)methoxy]-5-fluoro-2-methoxy-3-pyridyl]-methyl]-1-methyl-pyrrolidine-2-carboxamide; Fumaric Acid], for which the EC50 in data set [1] is under 20 nM. Moreover, the Emax in data set [1] (setting [3]) is over 70%. In data set [2], the CLint scaled at 0.5 μM was under 5 L/h/kg.

Take `COc1nc(O[C@H]2CC[C@H](C(F)(F)F)CC2)c(F)cc1CNC(=O)[C@@H]1CCCN1C` [Example 8, (2S)—N-[[5-Fluoro-2-methoxy-6-[trans-4-(trifluoromethyl)cyclohexoxy]-3-pyridyl]methyl]-1-methyl-pyrrolidine-2-carboxamide; Fumaric Acid]: the 50% effective concentration (EC50) in data set [1] was under 20 nM. This compound also registered an Emax in data set [1] (setting [3]) of over 70%. In data set [2], the CLint scaled at 0.5 μM was 5 to 50 L/h/kg.

Turning to `COc1nc(OCC2CCC(F)(F)CC2)c(F)cc1CNC(=O)[C@@H]1CCCN1C` [Example 9, (2S)—N-[[6-[(4,4-Difluorocyclohexyl)methoxy]-5-fluoro-2-methoxy-3-pyridyl]methyl]-1-methyl-pyrrolidine-2-carboxamide; Fumaric Acid], the EC50 in data set [1] was under 20 nM. This compound also gave a maximal response (Emax) in data set [1] (setting [3]) of over 70%. For the same compound, in data set [2], the CLint scaled at 0.5 μM was in the range of 5 to 50 L/h/kg.

For the compound `COc1nc(OC2CCC(F)(F)CC2)c(F)cc1CNC(=O)[C@@H]1CCCN1C` [Example 10, (2S)—N-[[6-(4,4-Difluorocyclohexoxy)-5-fluoro-2-methoxy-3-pyridyl]methyl]-1-methyl-pyrrolidine-2-carboxamide; Fumaric Acid], the EC50 in data set [1] is under 20 nM. The compound further displayed a maximal response (Emax) in data set [1] (setting [3]) of over 70%. Also, the CLint scaled at 0.5 μM in data set [2] is 5 to 50 L/h/kg.

For the compound `COc1nc(O[C@H]2CC[C@H](C(F)(F)F)CC2)c(F)cc1CNC(=O)[C@@H]1CCCN1` [Example 11, (2S)—N-[[5-Fluoro-2-methoxy-6-[trans-4-(trifluoromethyl)cyclohexoxy]-3-pyridyl]methyl]pyrrolidine-2-carboxamide; Fumaric Acid], in data set [1], the concentration for a half-maximal effect (EC50) was under 20 nM. The compound also displayed an Emax in data set [1] (setting [3]) of over 70%. The CLint scaled at 0.5 μM in data set [2] was 5 to 50 L/h/kg.

As for `COc1nc(OC2CCC(OC)CC2)c(F)cc1CNC(=O)[C@@H]1CCCN1` (stereo partly drawn) [Example 12, (2S)—N-[[5-Fluoro-2-methoxy-6-(4-methoxycyclohexoxy)-3-pyridyl]methyl]-pyrrolidine-2-carboxamide; Fumaric Acid], the EC50 in data set [1] was 20 to 200 nM. Further, the maximal response (Emax) in data set [1] (setting [3]) is over 70%. Also, the CLint scaled at 0.5 μM in data set [2] is under 5 L/h/kg.

`COc1nc(OC2CCC(OC)CC2)c(F)cc1CNC(=O)[C@@H]1CCCN1C` (stereo partly drawn) [Example 13, (2S)—N-[[5-Fluoro-2-methoxy-6-(4-methoxycyclohexoxy)-3-pyridyl]methyl]-1-methyl-pyrrolidine-2-carboxamide; Fumaric Acid]: the EC50 in data set [1] is 20 to 200 nM. In data set [1] (setting [3]), the maximal response (Emax) was over 70%. In addition, the CLint scaled at 0.5 μM in data set [2] was under 5 L/h/kg.

Turning to `COc1nc(OCC2CCC(C(F)(F)F)CC2)c(F)cc1CNC(=O)[C@@H]1CCCN1` (stereo partly drawn) [Example 14, (2S)—N-[[5-Fluoro-2-methoxy-6-[[4-(trifluoromethyl)cyclohexyl]methoxy]-3-pyridyl]methyl]pyrrolidine-2-carboxamide; Fumaric Acid], the EC50 in data set [1] was under 20 nM. In data set [1] (setting [3]), this compound registered a maximal response (Emax) of over 70%. Also, the CLint scaled at 0.5 μM in data set [2] lay within 50 to 500 L/h/kg.

For the compound `COc1nc(OCC2CCC(C(F)(F)F)CC2)c(F)cc1CNC(=O)[C@@H]1CCCN1C` (stereo partly drawn) [Example 15, (2S)—N-[[5-Fluoro-2-methoxy-6-[[4-(trifluoromethyl)cyclohexyl]methoxy]-3-pyridyl]methyl]-1-methyl-pyrrolidine-2-carboxamide], the half-maximal effective concentration (EC50) in data set [1] was under 20 nM. This compound also yielded an Emax in data set [1] (setting [3]) of over 70%. In addition, the CLint scaled at 0.5 μM in data set [2] lay in the range of 50 to 500 L/h/kg.

By EC50 is commonly meant the concentration at which the effect is half-maximal. The Emax is the greatest response seen or fitted, relative to the assay's reference.
